According to ChEMBL document CHEMBL1159229, “In vitro anticomplementary activity of constituents from Morinda morindoides” (J Nat Prod, 1995):

Key:
Cavia porcellus [1] = species on record: Cavia porcellus; assay: Activation of guinea pig classical complement system assessed as hemolysis of sensitized sheep erythrocytes at 1000 uM
Homo sapiens [2] = species on record: Homo sapiens; assay: Activation of human plasma alternative complement system assessed as hemolysis of non-sensitized rabbit erythrocytes at 1000 uM; assay type: cell-free
Cavia porcellus [3] = species on record: Cavia porcellus; assay: Inhibition of guinea pig classical complement system assessed as hemolysis of sensitized sheep erythrocytes at 1000 uM
Homo sapiens [4] = species on record: Homo sapiens; assay: Inhibition of human plasma alternative complement system assessed as hemolysis of non-sensitized rabbit erythrocytes at 1000 uM; assay type: cell-free
Cavia porcellus [5] = species on record: Cavia porcellus; assay: Inhibition of guinea pig classical complement system assessed as hemolysis of sensitized sheep erythrocytes

Row | SMILES | Activity (Cavia porcellus [1]) | Activity (Homo sapiens [2]) | inhibition (Cavia porcellus [3]) | inhibition (Homo sapiens [4]) | Activity (Cavia porcellus [5])
1 | COc1cc(-c2cc(=O)c3c(O)cc(O)cc3o2)ccc1O | 9% | 59% |  |  | 
2 | C[C@@H]1O[C@@H](OC[C@H]2O[C@@H](Oc3c(-c4ccc(O)c(O)c4)oc4cc(O)cc(O)c4c3=O)[C@H](O)[C@@H](O)[C@@H]2O)[C@H](O)[C@H](O)[C@H]1O |  |  | 54.4% | 18% | Dose-dependent effect
3 | C[C@@H]1O[C@@H](OC[C@H]2O[C@@H](Oc3c(-c4ccc(O)cc4)oc4cc(O)cc(O)c4c3=O)[C@H](O)[C@@H](O)[C@@H]2O)[C@H](O)[C@H](O)[C@H]1O |  | 18.4% | 19.2% |  | 
4 | COc1cc(-c2cc(=O)c3c(O)cc(O[C@@H]4O[C@H](CO)[C@@H](O)[C@H](O)[C@H]4O[C@@H]4O[C@@H](C)[C@H](O)[C@@H](O)[C@H]4O)cc3o2)ccc1O | 4.6% | 11.2% |  |  | 
5 | O=C(/C=C/c1ccc(O)c(O)c1)O[C@H](Cc1ccc(O)c(O)c1)C(=O)O |  |  | 93.3% | 67.8% | Dose-dependent effect
6 | COc1cc(O)c2c(=O)c(O)c(-c3ccc(OC)c(O)c3)oc2c1 |  | 13.7% | 24.3% |  | 
7 | C[C@@H]1O[C@@H](Oc2c(-c3ccc(O)cc3)oc3cc(O)cc(O)c3c2=O)[C@H](O)[C@H](O)[C@H]1O |  |  | 5.6% | 6.2% | 
8 | O=c1c(O)c(-c2ccc(O)c(O)c2)oc2cc(O)cc(O)c12 |  |  | 52.5% | 24% | Dose-dependent effect
9 | O=c1cc(-c2ccc(O)cc2)oc2cc(O[C@@H]3O[C@H](CO)[C@@H](O)[C@H](O)[C@H]3O)cc(O)c12 | 2.34% | 2.4% |  |  | 
10 | O=c1cc(-c2ccc(O)c(O)c2)oc2cc(O[C@@H]3O[C@H](CO)[C@@H](O)[C@H](O)[C@H]3O)cc(O)c12 |  |  | 25.2% | 2% | 
11 | C[C@@H]1O[C@@H](Oc2c(-c3ccc(O)c(O)c3)oc3cc(O)cc(O)c3c2=O)[C@H](O)[C@H](O)[C@H]1O |  |  | 56.2% | 13.5% | Dose-dependent effect
